Data published in PMC9898036, “VIP152 is a selective CDK9 inhibitor with pre-clinical in vitro and in vivo efficacy in chronic lymphocytic leukemia” (Leukemia, 2022).
Where two headings read alike, the source gives them in different places.

How the values were obtained:
Test in all cases: DiscoverX KINOMEscan kinase profiling (468 assays)
Assay type in all cases: binding
human kinome [1] = target: human kinome (Homo sapiens, UniProt O14757); conditions: CHEK1; 100 nM; read-out: Percent Control
Summary of the method: (§1)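 DNA-tagged kinases competed for immobilized biotinylated ligands on streptavidin magnetic beads, with bound kinase quantified by qPCR. VIP152 in DMSO was tested against a DMSO control.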

human kinome [2] = target: human kinome (Homo sapiens, UniProt P15735); conditions: read-out: Percent Control
human kinome (Homo sapiens, UniProt P15735), sequence (P15735 whole entry): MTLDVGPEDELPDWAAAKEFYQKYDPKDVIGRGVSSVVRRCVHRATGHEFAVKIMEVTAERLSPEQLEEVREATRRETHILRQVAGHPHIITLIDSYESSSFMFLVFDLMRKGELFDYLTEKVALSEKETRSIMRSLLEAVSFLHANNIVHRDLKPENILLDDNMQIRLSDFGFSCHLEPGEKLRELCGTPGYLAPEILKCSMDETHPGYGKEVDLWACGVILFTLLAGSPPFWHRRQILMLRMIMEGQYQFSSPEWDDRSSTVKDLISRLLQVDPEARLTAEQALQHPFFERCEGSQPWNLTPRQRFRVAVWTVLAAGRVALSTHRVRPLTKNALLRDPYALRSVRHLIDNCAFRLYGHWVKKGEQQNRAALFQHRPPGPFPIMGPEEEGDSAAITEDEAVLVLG
Summary of the method: as §1

human kinome [3] = target: human kinome (Homo sapiens, UniProt P42680); conditions: kinase TEC (Entrez TEC); compound concentration 1000 nM; read-out: Percent Control
Summary of the method: as §1

human kinome [4] = target: human kinome (Homo sapiens, UniProt P45985); conditions: MEK4 (Entrez MAP2K4); 100 nM; read-out: Percent Control
Summary of the method: as §1

human kinome [5] = target: human kinome (Homo sapiens, UniProt Q12852); conditions: DLK (Entrez MAP3K12); 100 nM; read-out: Percent Control
Summary of the method: as §1

human kinome [6] = target: human kinome (Homo sapiens, UniProt P00533, DEL752-759); conditions: EGFR(S752-I759del); 100 nM; read-out: Percent Control
Summary of the method: as §1

human kinome [7] = target: human kinome (Homo sapiens, UniProt Q8NEV4); conditions: read-out: Percent Control
human kinome (Homo sapiens, UniProt Q8NEV4), sequence (Q8NEV4 whole entry): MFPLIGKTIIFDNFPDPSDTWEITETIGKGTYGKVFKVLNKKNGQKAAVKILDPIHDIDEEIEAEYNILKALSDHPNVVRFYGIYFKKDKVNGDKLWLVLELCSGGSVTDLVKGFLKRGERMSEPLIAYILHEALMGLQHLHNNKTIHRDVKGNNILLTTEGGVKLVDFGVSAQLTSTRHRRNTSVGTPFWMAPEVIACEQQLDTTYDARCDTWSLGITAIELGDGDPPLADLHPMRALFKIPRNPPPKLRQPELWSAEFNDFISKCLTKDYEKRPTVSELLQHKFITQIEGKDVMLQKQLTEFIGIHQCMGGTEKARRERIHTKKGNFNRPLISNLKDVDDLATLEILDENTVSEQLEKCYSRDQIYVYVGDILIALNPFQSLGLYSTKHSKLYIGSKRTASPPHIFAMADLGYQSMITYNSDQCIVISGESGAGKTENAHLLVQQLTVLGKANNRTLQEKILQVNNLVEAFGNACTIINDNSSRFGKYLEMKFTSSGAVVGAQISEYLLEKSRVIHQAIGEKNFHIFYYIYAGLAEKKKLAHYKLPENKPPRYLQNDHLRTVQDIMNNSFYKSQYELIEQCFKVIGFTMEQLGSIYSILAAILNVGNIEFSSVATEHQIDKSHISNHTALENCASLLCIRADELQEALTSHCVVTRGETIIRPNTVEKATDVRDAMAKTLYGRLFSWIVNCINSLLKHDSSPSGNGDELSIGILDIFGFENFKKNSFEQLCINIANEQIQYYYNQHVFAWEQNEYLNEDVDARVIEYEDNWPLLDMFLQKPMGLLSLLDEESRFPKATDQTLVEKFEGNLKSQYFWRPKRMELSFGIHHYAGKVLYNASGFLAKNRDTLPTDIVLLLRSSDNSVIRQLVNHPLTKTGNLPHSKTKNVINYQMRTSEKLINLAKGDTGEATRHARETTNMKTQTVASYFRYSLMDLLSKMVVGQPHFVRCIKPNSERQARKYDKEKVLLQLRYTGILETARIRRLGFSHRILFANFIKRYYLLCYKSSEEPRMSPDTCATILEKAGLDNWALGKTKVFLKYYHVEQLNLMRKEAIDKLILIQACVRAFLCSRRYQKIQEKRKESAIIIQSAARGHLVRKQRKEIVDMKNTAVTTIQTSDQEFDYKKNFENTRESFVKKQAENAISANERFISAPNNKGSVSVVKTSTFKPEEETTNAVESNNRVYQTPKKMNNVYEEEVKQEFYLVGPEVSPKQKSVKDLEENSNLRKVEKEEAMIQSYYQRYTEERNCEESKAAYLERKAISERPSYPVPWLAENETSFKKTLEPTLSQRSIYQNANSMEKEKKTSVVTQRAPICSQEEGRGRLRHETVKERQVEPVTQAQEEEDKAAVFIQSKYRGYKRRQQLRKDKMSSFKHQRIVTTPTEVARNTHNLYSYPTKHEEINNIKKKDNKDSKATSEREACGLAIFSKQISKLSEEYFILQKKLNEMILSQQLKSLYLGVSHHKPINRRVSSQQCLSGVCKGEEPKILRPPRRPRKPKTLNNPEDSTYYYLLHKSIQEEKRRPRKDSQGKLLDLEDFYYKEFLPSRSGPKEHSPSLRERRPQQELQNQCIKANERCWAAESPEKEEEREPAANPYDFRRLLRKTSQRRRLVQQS
Summary of the method: as §1

human kinome [8] = target: human kinome (Homo sapiens, UniProt Q16832); conditions: DDR2; 100 nM; read-out: Percent Control
Summary of the method: as §1

human kinome [9] = target: human kinome (Homo sapiens, UniProt P54756); conditions: EPHA5; 100 nM; read-out: Percent Control
Summary of the method: as §1

human kinome [10] = target: human kinome (Homo sapiens, UniProt P25098); conditions: GRK2 (Entrez ADRBK1); 100 nM; read-out: Percent Control
Summary of the method: as §1

human kinome [11] = target: human kinome (Homo sapiens, UniProt Q16584); conditions: MLK3 (Entrez MAP3K11); 100 nM; read-out: Percent Control
Summary of the method: as §1

human kinome [12] = target: human kinome (Homo sapiens, UniProt Q56UN5); conditions: kinase YSK4 (Entrez MAP3K19); compound concentration 1000 nM; read-out: Percent Control
Summary of the method: as §1

human kinome [13] = target: human kinome (Homo sapiens, UniProt P54764); conditions: EPHA4; 100 nM; read-out: Percent Control
Summary of the method: as §1

human kinome [14] = target: human kinome (Homo sapiens, UniProt Q8TF76); conditions: HASPIN (Entrez GSG2); 100 nM; read-out: Percent Control
Summary of the method: as §1

human kinome [15] = target: human kinome (Homo sapiens, UniProt Q9UF33); conditions: EPHA6; 100 nM; read-out: Percent Control
Summary of the method: as §1

human kinome [16] = target: human kinome (Homo sapiens, UniProt Q16513); conditions: read-out: Percent Control
human kinome (Homo sapiens, UniProt Q16513), sequence (Q16513 whole entry): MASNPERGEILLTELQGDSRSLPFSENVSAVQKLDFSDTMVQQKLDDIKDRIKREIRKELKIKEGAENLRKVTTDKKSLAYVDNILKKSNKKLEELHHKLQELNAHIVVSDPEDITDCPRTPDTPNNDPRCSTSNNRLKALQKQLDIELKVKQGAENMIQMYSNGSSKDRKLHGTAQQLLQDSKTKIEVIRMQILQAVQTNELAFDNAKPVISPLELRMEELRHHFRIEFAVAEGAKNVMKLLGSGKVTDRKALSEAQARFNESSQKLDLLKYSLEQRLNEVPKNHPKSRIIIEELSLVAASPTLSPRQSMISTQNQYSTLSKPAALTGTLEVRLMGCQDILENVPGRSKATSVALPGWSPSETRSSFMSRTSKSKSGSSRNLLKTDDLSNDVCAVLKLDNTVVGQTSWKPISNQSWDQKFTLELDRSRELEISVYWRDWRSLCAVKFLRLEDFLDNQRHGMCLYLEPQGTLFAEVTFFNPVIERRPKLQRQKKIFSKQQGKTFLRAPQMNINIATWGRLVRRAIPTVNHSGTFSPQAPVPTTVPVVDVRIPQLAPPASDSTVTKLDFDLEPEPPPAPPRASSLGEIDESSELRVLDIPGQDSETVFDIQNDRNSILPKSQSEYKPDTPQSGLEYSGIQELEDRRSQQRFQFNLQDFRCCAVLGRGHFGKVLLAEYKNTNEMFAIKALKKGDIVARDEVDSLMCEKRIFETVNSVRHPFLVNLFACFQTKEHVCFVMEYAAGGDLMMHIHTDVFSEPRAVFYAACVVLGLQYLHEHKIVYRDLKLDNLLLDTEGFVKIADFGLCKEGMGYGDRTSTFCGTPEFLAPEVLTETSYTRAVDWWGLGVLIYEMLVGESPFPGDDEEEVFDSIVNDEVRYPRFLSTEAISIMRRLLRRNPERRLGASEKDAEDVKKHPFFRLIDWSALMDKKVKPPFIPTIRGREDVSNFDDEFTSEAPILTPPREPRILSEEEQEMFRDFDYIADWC
Summary of the method: as §1

human kinome [17] = target: human kinome (Homo sapiens, UniProt P46734); conditions: MEK3 (Entrez MAP2K3); 100 nM; read-out: Percent Control
Summary of the method: as §1

human kinome [18] = target: human kinome (Homo sapiens, UniProt P48730); conditions: CSNK1D; 100 nM; read-out: Percent Control
Summary of the method: as §1

human kinome [19] = target: human kinome (Homo sapiens, UniProt Q96PN8); conditions: kinase TSSK3 (Entrez TSSK3); compound concentration 1000 nM; read-out: Percent Control
Summary of the method: as §1

human kinome [20] = target: human kinome (Homo sapiens, UniProt P10721, A829P); conditions: KIT(A829P); 100 nM; read-out: Percent Control
Summary of the method: as §1

human kinome [21] = target: human kinome (Homo sapiens, UniProt Q9Y5S2); conditions: MRCKB (Entrez CDC42BPB); 100 nM; read-out: Percent Control
Summary of the method: as §1

human kinome [22] = target: human kinome (Homo sapiens, UniProt P42336); conditions: read-out: Percent Control
human kinome (Homo sapiens, UniProt P42336), sequence (P42336 whole entry): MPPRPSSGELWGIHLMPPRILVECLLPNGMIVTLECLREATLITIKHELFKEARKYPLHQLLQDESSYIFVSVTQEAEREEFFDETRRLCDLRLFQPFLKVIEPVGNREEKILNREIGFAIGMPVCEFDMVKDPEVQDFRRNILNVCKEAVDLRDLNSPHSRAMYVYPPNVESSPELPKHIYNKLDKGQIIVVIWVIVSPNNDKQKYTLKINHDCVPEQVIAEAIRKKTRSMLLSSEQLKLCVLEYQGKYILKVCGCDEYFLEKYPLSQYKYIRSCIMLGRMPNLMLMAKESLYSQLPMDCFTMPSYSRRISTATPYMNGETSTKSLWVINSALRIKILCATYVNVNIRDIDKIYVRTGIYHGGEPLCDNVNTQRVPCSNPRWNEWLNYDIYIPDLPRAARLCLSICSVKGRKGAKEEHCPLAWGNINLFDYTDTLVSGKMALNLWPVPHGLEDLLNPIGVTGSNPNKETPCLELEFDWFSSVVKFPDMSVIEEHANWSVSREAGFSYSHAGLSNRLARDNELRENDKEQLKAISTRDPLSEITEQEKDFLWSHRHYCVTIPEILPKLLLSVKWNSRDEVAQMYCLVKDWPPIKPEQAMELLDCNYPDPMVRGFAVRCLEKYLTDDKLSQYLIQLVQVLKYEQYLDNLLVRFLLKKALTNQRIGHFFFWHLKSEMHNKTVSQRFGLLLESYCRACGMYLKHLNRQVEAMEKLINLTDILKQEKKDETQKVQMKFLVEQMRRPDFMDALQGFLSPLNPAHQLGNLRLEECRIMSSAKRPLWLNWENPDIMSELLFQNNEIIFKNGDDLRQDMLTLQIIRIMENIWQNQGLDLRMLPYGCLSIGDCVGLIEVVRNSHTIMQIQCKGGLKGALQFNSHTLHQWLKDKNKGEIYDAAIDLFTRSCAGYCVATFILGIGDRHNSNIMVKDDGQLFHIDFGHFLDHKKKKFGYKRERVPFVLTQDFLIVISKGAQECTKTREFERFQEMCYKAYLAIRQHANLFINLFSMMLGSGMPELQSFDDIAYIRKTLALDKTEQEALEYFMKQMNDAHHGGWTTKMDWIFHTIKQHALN
Summary of the method: as §1

human kinome [23] = target: human kinome (Homo sapiens, UniProt P06241); conditions: FYN; 100 nM; read-out: Percent Control
Summary of the method: as §1

human kinome [24] = target: human kinome (Homo sapiens, UniProt P42338); conditions: read-out: Percent Control
Summary of the method: as §1

human kinome [25] = target: human kinome (Homo sapiens, UniProt P07333); conditions: 100 nM, read-out: Percent Control
human kinome (Homo sapiens, UniProt P07333), sequence (P07333 20-972): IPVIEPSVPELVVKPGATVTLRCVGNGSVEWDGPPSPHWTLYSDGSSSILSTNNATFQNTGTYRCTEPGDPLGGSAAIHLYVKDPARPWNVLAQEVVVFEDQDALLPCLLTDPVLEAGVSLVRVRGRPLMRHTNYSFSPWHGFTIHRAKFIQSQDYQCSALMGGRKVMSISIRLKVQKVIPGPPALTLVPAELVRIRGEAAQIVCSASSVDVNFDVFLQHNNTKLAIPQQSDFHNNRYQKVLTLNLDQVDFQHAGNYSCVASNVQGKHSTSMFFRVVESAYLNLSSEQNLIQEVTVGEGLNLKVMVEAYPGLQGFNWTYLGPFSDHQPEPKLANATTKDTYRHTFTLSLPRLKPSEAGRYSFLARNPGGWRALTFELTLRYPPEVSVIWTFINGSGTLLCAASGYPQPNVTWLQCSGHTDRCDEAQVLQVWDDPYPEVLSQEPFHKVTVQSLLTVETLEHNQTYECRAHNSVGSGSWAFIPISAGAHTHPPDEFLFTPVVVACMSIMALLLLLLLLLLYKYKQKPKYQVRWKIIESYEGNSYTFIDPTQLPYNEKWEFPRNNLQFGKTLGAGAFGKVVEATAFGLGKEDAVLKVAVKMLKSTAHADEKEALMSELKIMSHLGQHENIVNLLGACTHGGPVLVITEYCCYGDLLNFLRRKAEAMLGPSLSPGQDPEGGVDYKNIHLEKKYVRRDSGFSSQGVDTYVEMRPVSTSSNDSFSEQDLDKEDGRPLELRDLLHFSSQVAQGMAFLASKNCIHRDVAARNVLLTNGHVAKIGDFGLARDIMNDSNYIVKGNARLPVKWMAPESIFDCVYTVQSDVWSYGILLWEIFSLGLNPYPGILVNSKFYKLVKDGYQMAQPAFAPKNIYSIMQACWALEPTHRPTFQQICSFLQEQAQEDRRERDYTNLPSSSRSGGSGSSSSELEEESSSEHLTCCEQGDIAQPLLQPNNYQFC
Summary of the method: as §1

human kinome [26] = target: human kinome (Homo sapiens, UniProt Q9UBF8); conditions: read-out: Percent Control
Summary of the method: as §1

human kinome [27] = target: human kinome (Homo sapiens, UniProt O00141); conditions: kinase SGK (Entrez SGK1); compound concentration 1000 nM; read-out: Percent Control
Summary of the method: as §1

human kinome [28] = target: human kinome (Homo sapiens, UniProt P10721, D816H); conditions: KIT(D816H); 100 nM; read-out: Percent Control
Summary of the method: as §1

human kinome [29] = target: human kinome (Homo sapiens, UniProt P07949); conditions: kinase RET (Entrez RET); compound concentration 1000 nM; read-out: Percent Control
Summary of the method: as §1

human kinome [30] = target: human kinome (Homo sapiens, UniProt P42679); conditions: CTK (Entrez MATK); 100 nM; read-out: Percent Control
Summary of the method: as §1

## COc1cc(F)ccc1-c1cc(Nc2cc(CS(C)(=N)=O)ccn2)ncc1F (stereo not shown) [VIP152]
Human kinome [1]
  remaining binding at 0.1 µM: 100%
Human kinome [2]; PHKG2, 100 nM
  remaining binding at 0.1 µM: 100%
Human kinome [2]; kinase PHKG2 (Entrez PHKG2), compound concentration 1000 nM
  remaining binding at 1 µM: 88%
Human kinome [3]
  remaining binding at 1 µM: 100%
Human kinome [4]
  remaining binding at 0.1 µM: 100%
Human kinome [5]
  remaining binding at 0.1 µM: 100%
Human kinome [6]
  remaining binding at 0.1 µM: 100%
Human kinome [7]; MYO3A, 100 nM
  remaining binding at 0.1 µM: 100%
Human kinome [7]; kinase MYO3A (Entrez MYO3A), compound concentration 1000 nM
  remaining binding at 1 µM: 90%
Human kinome [8]
  remaining binding at 0.1 µM: 79%
Human kinome [9]
  remaining binding at 0.1 µM: 100%
Human kinome [10]
  remaining binding at 0.1 µM: 100%
Human kinome [11]
  remaining binding at 0.1 µM: 100%
Human kinome [12]
  remaining binding at 1 µM: 19%
Human kinome [13]
  remaining binding at 0.1 µM: 73%
Human kinome [14]
  remaining binding at 0.1 µM: 93%
Human kinome [15]
  remaining binding at 0.1 µM: 100%
Human kinome [16]; PKN2, 100 nM
  remaining binding at 0.1 µM: 96%
Human kinome [16]; kinase PKN2 (Entrez PKN2), compound concentration 1000 nM
  remaining binding at 1 µM: 92%
Human kinome [17]
  remaining binding at 0.1 µM: 100%
Human kinome [18]
  remaining binding at 0.1 µM: 100%
Human kinome [19]
  remaining binding at 1 µM: 76%
Human kinome [20]
  remaining binding at 0.1 µM: 100%
Human kinome [21]
  remaining binding at 0.1 µM: 100%
Human kinome [22]; PIK3CA, 100 nM
  remaining binding at 0.1 µM: 100%
Human kinome [22]; kinase PIK3CA (Entrez PIK3CA), compound concentration 1000 nM
  remaining binding at 1 µM: 95%
Human kinome [23]
  remaining binding at 0.1 µM: 100%
Human kinome [24]; PIK3CB, 100 nM
  remaining binding at 0.1 µM: 100%
Human kinome [24]; kinase PIK3CB (Entrez PIK3CB), compound concentration 1000 nM
  remaining binding at 1 µM: 100%
Human kinome [25]; CSF1R-autoinhibited
  remaining binding at 0.1 µM: 95%
Human kinome [25]; CSF1R
  remaining binding at 0.1 µM: 100%
Human kinome [26]; PIK4CB (Entrez PI4KB), 100 nM
  remaining binding at 0.1 µM: 100%
Human kinome [26]; kinase PIK4CB (Entrez PI4KB), compound concentration 1000 nM
  remaining binding at 1 µM: 95%
Human kinome [27]
  remaining binding at 1 µM: 83%
Human kinome [28]
  remaining binding at 0.1 µM: 100%
Human kinome [29]
  remaining binding at 1 µM: 94%
Human kinome [30]
  remaining binding at 0.1 µM: 95%
